Paper PMC5078989, “Targeted inhibition of the COP9 signalosome for treatment of cancer” (Nature Communications, 2016)

Test system: panel of cancer cell lines
Test: Cell viability (CellTiter-Glo) dose-response across cancer cell line panel;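 further: after 72 h compound incubation with CellTiter-Glo ATP readout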
Type: cell-based, human
Conditions: Homo sapiens
Description: Next, we explored the effect of CSN5 inhibition on the viability of cancer cells. To obtain a comprehensive picture, we generated dose–response curves with a CSN5 inhibitor across more than 500 cancer cell lines in a previously described standardized setting[47] (Supplementary Data 1).
A standardized CellTiter-Glo Assay (Promega #G7570) based on the quantification of ATP was applied according to the manufacturer's protocol to measure the amount of viable cells in culture. In brief, cells were seeded into 384-well plates at optimal density for each cell line. After 4 h, compounds were added at different concentrations in growth medium and incubated for another 72 h in a humidifying chamber at 37 °C and 5% CO2. […] EC50 values were calculated from the plot of percentage of inhibition versus inhibitor concentration using the nonlinear regression analysis software Origin 7.5SR6 (OriginLab Corp.).

NS(=O)(=O)OC[C@@H]1C[C@@H](n2ccc3c(N[C@H]4CCc5ccccc54)ncnc32)C[C@@H]1O [MLN4924]
EC50 (MOLT-16, MOLT-16): 134 nM
EC50 (MSTO-211H): 366 nM
EC50 (MV4-11, MV-4-11): 74.8 nM
EC50 (Malme-3M): 521 nM
EC50 (MeWo): 279 nM
EC50 (Mono-Mac-1, MONO-MAC-1): 233 nM
EC50 (NALM-6, NALM-6): 432 nM
EC50 (NB1, NB-1): 213 nM
EC50 (NB-4, NB-4): 60.9 nM
EC50 (NCI-H23, NCI-H23): 532 nM
EC50 (NCI-H28, NCI-H28): 10800 nM
EC50 (NCI-H82, NCI-H82): 89.6 nM
EC50 (NCI-H146, NCI-H146): 240 nM
EC50 (NCI-H211, NCI-H211): 2840 nM
EC50 (NCI-H322, NCI-H322): 767 nM
EC50 (NCI-H460, NCI-H460): 1460 nM
EC50 (NCI-H520, NCI-H520): 4070 nM
EC50 (NCI-H647, NCI-H647): 3220 nM
EC50 (NCI-H650, NCI-H650): 424 nM
EC50 (NCI-H661, NCI-H661): 174 nM
EC50 (NCI-H747, NCI-H747): 2320 nM
EC50 (NCI-H810, NCI-H810): 26.5 nM
EC50 (NCI-H838, NCI-H838): 259 nM
EC50 (NCI-H841, NCI-H841): 204 nM
EC50 (NCI-H1048, NCI-H1048): 79.9 nM
EC50 (NCI-H1299, NCI-H1299): 460 nM
EC50 (NCI-H1339, NCI-H1339): 67 nM
EC50 (NCI-H1341): 86.4 nM
EC50 (NCI-H1355, NCI-H1355): 700 nM
EC50 (NCI-H1373, NCI-H1373): 655 nM
EC50 (NCI-H1437, NCI-H1437): 2820 nM
EC50 (NCI-H1568, NCI-H1568): 680 nM
EC50 (NCI-H1581, NCI-H1581): 296 nM
EC50 (NCI-H1650, NCI-H1650): 5840 nM
EC50 (NCI-H1666, NCI-H1666): 2270 nM
EC50 (NCI-H1693, NCI-H1693): 541 nM
EC50 (NCI-H1703, NCI-H1703): 32.1 nM
EC50 (NCI-H1755, NCI-H1755): 3310 nM
EC50 (NCI-H1792, NCI-H1792): 7900 nM
EC50 (NCI-H1915, NCI-H1915): 1160 nM
EC50 (NCI-H1975, NCI-H1975): 2710 nM
EC50 (NCI-H2023, NCI-H2023): 376 nM
EC50 (NCI-H2030, NCI-H2030): 402 nM
EC50 (NCI-H2073, NCI-H2073): 399 nM
EC50 (NCI-H2087, NCI-H2087): 493 nM
EC50 (NCI-H2110, NCI-H2110): 238 nM
EC50 (NCI-H2122, NCI-H2122): 335 nM
EC50 (NCI-H2126, NCI-H2126): 15200 nM
EC50 (NCI-H2170, NCI-H2170): 335 nM
EC50 (NCI-H2172, NCI-H2172): 10700 nM
EC50 (NCI-H2228, NCI-H2228): 1330 nM
EC50 (NCI-H2286, NCI-H2286): 119 nM
EC50 (NCI-H2444, NCI-H2444): 413 nM
EC50 (NCI-H2452, NCI-H2452): 1810 nM
EC50 (NCI-H3255, NCI-H3255): > 30000 nM
EC50 (NCI-N87, NCI-N87): 2980 nM
EC50 (NO36): 873 nM
EC50 (NOMO-1, NOMO-1): 137 nM
EC50 (NUGC-3, NUGC-3): 929 nM
EC50 (OCI-AML-3, OCI-AML3): 93.3 nM
EC50 (OCI-AML-5, OCI-AML5): 240 nM
EC50 (OCI-Ly3, OCI-LY3): 112 nM
EC50 (OCI-M1, OCI-M1): 34.3 nM
EC50 (OUMS-23, OUMS-23): 970 nM
EC50 (OV56, OV56): 387 nM
EC50 (OVCAR-3, NIH:OVCAR-3): 304 nM
EC50 (OVCAR-4, OVCAR-4): 789 nM
EC50 (OVISE): 791 nM
EC50 (P3HR-1, P3HR-1): 283 nM
EC50 (P12-Ichikawa): 208 nM
EC50 (P31-FUJ, P31/FUJ): 285 nM
EC50 (PANC-1, PANC-1): 3930 nM
EC50 (PANC-03-27, Panc 03.27): 401 nM
EC50 (PC-3, PC-3): 570 nM
EC50 (PC-14, PC-14): 884 nM
EC50 (PE/CA-PJ34 (clone C12)): 86.1 nM
EC50 (PE/CA-PJ49): 297 nM
EC50 (PF-382, PF-382): 216 nM
EC50 (PK-1, PK-1): 1370 nM
EC50 (PK-45H): 1610 nM
EC50 (PK-59, PK-59): 2030 nM
EC50 (PL45, PL45): 305 nM
EC50 (PL-21, PL-21): 136 nM
EC50 (PLC-PRF-5, PLC/PRF/5): 3760 nM
EC50 (PSN1, PSN1): 1190 nM
EC50 (PaTu 8902, PA-TU-8902): 898 nM
EC50 (PaTu 8988s, PA-TU-8988S): 12200 nM
EC50 (PaTu 8988t, PA-TU-8988T): 888 nM
EC50 (Panc 02.03, Panc 02.03): 3430 nM
EC50 (Panc 04.03, Panc 04.03): 245 nM
EC50 (Panc1005, Panc 10.05): 368 nM
EC50 (RCM-1, RCM-1): 8840 nM
EC50 (RD): 722 nM
EC50 (RD-ES): 162 nM
EC50 (RERF-LC-AI): 437 nM
EC50 (RERF-LC-MS): 719 nM
EC50 (RKN): 342 nM
EC50 (RKO): 163 nM
EC50 (RMUG-S): 4130 nM
EC50 (RPMI 8402, RPMI-8402): 92 nM
EC50 (RPMI-7951, RPMI-7951): 1020 nM
EC50 (RT-112, RT-112): 851 nM
EC50 (RVH-421, RVH-421): 727 nM
EC50 (Rh41, RH-41): 32.4 nM
EC50 (SCC-25, SCC-25): 561 nM
EC50 (SCaBER): 3560 nM
EC50 (SEM): 487 nM
EC50 (SF8657): > 30000 nM
EC50 (SF-268, SF-268): 472 nM
EC50 (SH-4, SH-4): 147 nM
EC50 (SH-10-TC): 19100 nM
EC50 (SH-SY5Y): 561 nM
EC50 (SJRH30, SJRH30): 72.9 nM
EC50 (SK-CO-1, SK-CO-1): 258 nM
EC50 (SK-ES1, SK-ES-1): 177 nM
EC50 (SK-HEP1, SK-HEP-1): 384 nM
EC50 (SK-LU-1, SK-LU-1): 915 nM
EC50 (SK-MEL3, SK-MEL-3): 722 nM
EC50 (SK-MEL-2, SK-MEL-2): 370 nM
EC50 (SK-MEL-5, SK-MEL-5): 552 nM
EC50 (SK-MEL-28, SK-MEL-28): 603 nM
EC50 (SK-MEL-30, SK-MEL-30): 418 nM
EC50 (SK-MES-1, SK-MES-1): 725 nM
EC50 (SK-N-SH): 1140 nM
EC50 (SK-OV-3, SK-OV-3): 1440 nM
EC50 (SKM-1, SKM-1): 85.6 nM
EC50 (SKNBE2, SK-N-BE(2)): 334 nM
EC50 (SNB-19, SNB-19): 626 nM
EC50 (SNG-M): 249 nM
EC50 (SNU668, SNU-668): 1520 nM
EC50 (SNU878, SNU-878): 746 nM
EC50 (SNU-8): 552 nM
EC50 (SNU-16, SNU-16): 272 nM
EC50 (SNU-61): 19000 nM
EC50 (SNU-81): 175 nM
EC50 (SNU-175): 317 nM
EC50 (SNU-213): 2080 nM
EC50 (SNU-324): 685 nM
EC50 (SNU-349): 319 nM
EC50 (SNU-387, SNU-387): 3860 nM
EC50 (SNU-398, SNU-398): 294 nM
EC50 (SNU-410): 351 nM
EC50 (SNU-423, SNU-423): 620 nM
EC50 (SNU-449, SNU-449): 3540 nM
EC50 (SNU-475, SNU-475): 2310 nM
